This note sets out measurements from patent EP4775570A1, “CYP11A1 INHIBITOR, PREPARATION METHOD THEREFOR AND USE THEREOF” (Shenzhen Zhongge Biological Technology Co., Ltd., priority 2023, dated 2025).

A word on the IC50: it is the point on the concentration scale where inhibition reaches its midpoint.

Molecules are shown by their SMILES. Some results are limits rather than exact numbers.

Assay [1] concerns testosterone, progesterone, corticosterone. Put plainly: LC-MS detection of testosterone, progesterone and corticosterone in mouse tumors and adrenal glands. The settings on record: VCaP model; for secretion of testosterone, progesterone and corticosterone in tumors and adrenal glands (in words): mouse tumors and adrenal glands. Format: in vivo. The text has this:
• Mouse tumors were homogenized using PBS in a 1:5 ratio (tumor weight (g): PBS volume (mL), w/v); • Mouse adrenal glands were homogenized using PBS in a 1:10 ratio (adrenal gland weight (g): PBS volume (mL), w/v); • Standard sample: testosterone (LGC, C17322500), progesterone (MCE, HY-N0437), adrenal ketone (MCE, HY-B1618), and standard solution of test substance.
Experiment procedures: since the three markers, i.e., testosterone, progesterone, and adrenal ketone, are all endogenous substances and present in the blank matrix as well, PBS was alternatively used as matrix in the production of the standard curve.
Testosterone: multiple reaction monitoring (MRM) method was used for detecting the concentrations of testosterone in mouse tumors and adrenal glands. Mass spectrum: AB Sciex Triple Quad 6500+; liquid chromatography: Shimadzu 40A, column: Waters XBridge BEH C18 2.5 µm 2.1*50mm, testosterone ion pair: 289.4/97.2. Both tumor and adrenal tissues were treated with methanol as precipitant and tolbutamide as internal standard for sample pretreatment, with linear range in 50-50,000pg/mL.
Progesterone and corticosterone: multi-reaction detection method (MRM) was used for detecting the concentrations of progesterone and corticosterone in mouse tumors and adrenal glands. Mass spectrum: AB Sciex Triple Quad 6500+; liquid chromatography: Shimadzu 40A, column: Waters XSelect HSS T3 2.5 µm 2.1*50mm, progesterone ion pair: 315.4/97.2, adrenone ion pair: 347.4/121.3. For tumor tissues, acetonitrile was used as precipitant and propranolol diclofenac as internal standard for sample pretreatment, with linear ranges in 0.05-10 ng/mL of progesterone and 0.10-20 ng/mL of corticosterone. For adrenal tissues, methanol was used as precipitant and propranolol diclofenac as internal standard for sample pretreatment, with linear ranges in 5-2,500 ng/mL of progesterone and 5-2,500 ng/mL of corticosterone.

Another assay deals with T1, hERG channels (Homo sapiens, UniProt Q12809).
T1 construct: host or cells: HEK293
The assay can be described thus: hERG testing, manual whole cell patch clamp. Format: cell-based. The settings on record: IC50, hERG tail current, room temperature (~25°C), 0.1-30 µM. The procedure: The cells used in this experiment were HEK293 cell lines transfected with hERG cDNA and stably expressing hERG channels (#60187, provided by BPS Bioscience Inc., P3-P23 generations were used in the experiment). The cells were cultured in a culture medium containing the following components: MEM medium, 10% (v/v) inactivated fetal bovine serum, 1 mM sodium pyruvate, 500µg/ml geneticin, 0.1mM non-essential amino acid, 100U/ml penicillin-streptomycin. HEK293 hERG cells were grown in petri dishes containing the aforementioned culture medium and cultured in an incubator at 37°C and 5% CO2, passaged approximately three times a week and maintained at a cell fusion rate between 40% and 80%. […]
The electrophysiological experiment was carried out using a manual patch clamp system (HEKA EPC-10 signal amplifier and digital conversion system, HEKA Electronics, Germany) to record the whole cell currents. […] Only when the hERG potassium current recorded in the previous step achieved stable state under continuous extracellular fluid perfusion within the recording chamber, could the compound to be tested be continuously perfused until the inhibitory effect of the compound on the hERG current reaches a stable state. […]
In general terms: The hERG channel carries a current that helps repolarise heart muscle cells.

T1 sequence (Q12809 whole entry): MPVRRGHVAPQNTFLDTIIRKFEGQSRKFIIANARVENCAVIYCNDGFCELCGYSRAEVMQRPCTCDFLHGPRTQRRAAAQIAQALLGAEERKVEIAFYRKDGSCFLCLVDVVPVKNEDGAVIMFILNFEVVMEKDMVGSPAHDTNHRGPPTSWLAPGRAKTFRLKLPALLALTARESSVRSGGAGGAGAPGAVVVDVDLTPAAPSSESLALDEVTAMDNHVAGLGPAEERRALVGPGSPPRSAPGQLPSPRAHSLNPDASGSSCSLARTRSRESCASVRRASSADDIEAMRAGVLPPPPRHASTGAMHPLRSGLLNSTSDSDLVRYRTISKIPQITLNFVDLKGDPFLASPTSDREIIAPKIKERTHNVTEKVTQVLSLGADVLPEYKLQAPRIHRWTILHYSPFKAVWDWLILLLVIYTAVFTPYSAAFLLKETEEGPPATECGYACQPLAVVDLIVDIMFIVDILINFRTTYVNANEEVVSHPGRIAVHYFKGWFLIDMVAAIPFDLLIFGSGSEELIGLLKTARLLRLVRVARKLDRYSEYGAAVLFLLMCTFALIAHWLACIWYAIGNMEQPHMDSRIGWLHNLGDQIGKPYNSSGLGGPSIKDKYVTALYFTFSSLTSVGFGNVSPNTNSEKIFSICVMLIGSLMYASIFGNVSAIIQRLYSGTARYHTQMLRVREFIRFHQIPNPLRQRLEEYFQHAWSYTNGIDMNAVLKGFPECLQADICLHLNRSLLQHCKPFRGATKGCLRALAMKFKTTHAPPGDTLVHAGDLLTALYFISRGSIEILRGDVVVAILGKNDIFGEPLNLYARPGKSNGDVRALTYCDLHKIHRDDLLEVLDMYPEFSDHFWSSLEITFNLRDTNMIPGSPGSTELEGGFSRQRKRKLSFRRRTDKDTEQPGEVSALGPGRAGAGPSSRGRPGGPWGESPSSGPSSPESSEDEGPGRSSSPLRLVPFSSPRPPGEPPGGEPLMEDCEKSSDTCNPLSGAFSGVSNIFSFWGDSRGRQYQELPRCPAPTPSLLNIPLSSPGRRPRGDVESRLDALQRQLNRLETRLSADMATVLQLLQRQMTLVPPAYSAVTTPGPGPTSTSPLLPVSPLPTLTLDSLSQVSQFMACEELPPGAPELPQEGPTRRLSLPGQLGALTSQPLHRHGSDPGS

In the case of `COc1cc(CN2Cc3ccccc3C2)ccc1CCC1CCN(S(C)(=O)=O)CC1` [compound 53], the “concentration of progesterone in the adrenal glands, relative to ODM-208” value in assay [1] (adrenal glands, fraction of the ODM-208 group) is recorded as 1/4. For the same molecule, in assay [1], the “secretion of testosterone, progesterone and corticosterone in tumors and adrenal glands (in words)” value is on record as “significantly inhibited”. Moreover, the “concentration of testosterone in the tumors, relative to the ODM-208 group” value in assay [1] (tumors, fraction of the ODM-208 group) is recorded as 1/8.

`Cn1c(CN2Cc3ccccc3C2)c(F)cc(CCC2CCN(S(C)(=O)=O)CC2)c1=O` [compound 72]: the “secretion of progesterone in the adrenal glands (in words)” value in assay [1] (adrenal glands of mice, vs control group) is “significant inhibitory effect”. Further, in assay [1], the “secretion of testosterone, progesterone and corticosterone in tumors and adrenal glands (in words)” value is listed as “significantly inhibited”. The IC50 against hERG channels is greater than 30 µM.

`Cn1c(CN2Cc3ccccc3C2)c(F)cc(C=CC2CCN(C(=O)CC#N)CC2)c1=O` [compound 112] had an IC50 on hERG channels greater than 30 µM.
